pKi: −log10 of the molar value.

The target of one assay is PCP receptor. The assay is described as follows: [3H]TCP radioreceptor assay (binding to PCP recognition sites). More on the design: species or system rat (male Sprague-Dawley, whole brain). Particulars: [3H]TCP approx. 1 nM, rat brain membranes; mean of at least two determinations. On the procedure: [^3 H]TCP Radioreceptor Assay
[^3 H]TCP binding to PCP recognition sites was performed as described by Vignon et al. Brain Research 1983, 280, 194-197. Male Sprague-Dawley rats were sacrificed by decapitation, and whole brains were homogenized in 10 volumes (wt/vol) of cold Tris-HCl buffer (50 mM, pH 7.7) using a Brinkmann Polytron (setting 6, 30 sec). The homogenate was centrifuged at 40,000×g for 10 min at 4° C. The supernatant was decanted, and the homogenization and centrifugation steps were repeated twice as described above. Following this, the pellet was resuspended in Tris-HCl (5 mM, pH 7.7) at a tissue concentration of 0.5-0.75 g/mL, and one mL aliquots were frozen at -70° C. until use. The binding characteristics for PCP recognition sites were not altered by the freezing of membrane suspensions.
On the day of the assay, membrane aliquots were thawed, resuspended in fresh 5 mM Tris-HCl buffer at a tissue concentration of 1 mg/mL, and stored on ice until use. Each assay tube contained 100 μl of [^3 H]TCP at a final concentration of approximately 1 nM, 100 μL of various concentrations of the compounds of interest, 500 μL of the tissue suspension and 300 μL of buffer to a final assay volume of 1 mL and a final protein concentration of 0.5 mg/tube. Non-specific binding was defined by addition of a final concentration of 100 μM PCP to blank tubes. All tubes were incubated at room temperature for 25 min before termination of the reaction by rapid filtration over Whatman GF/B glass fiber filters that had been presoaked in a solution of 0.5% polyethylenimine for at least 1 hr prior to use. Filters were washed with three 4 mL volumes of cold Tris buffer. Following addition of scintillation cocktail, the amount of bound radioactivity was determined by liquid scintillation spectrometry using a Beckman LS 5000TA liquid scintillation counter with an efficiency for tritium of approximately 55%. Inhibition constants (Ki values) were calculated using the EBDA/LIGAND program (McPherson, J. Pharmacol. Meth. 1985, 14, 213-228), purchased from ElsevierBiosoft, Inc. Results are reported as the Ki values (in nM) which are expressed as the mean of at least two separate determinations; or as a percent (%) inhibition of binding at 10 μM.
For the compound `Brc1cc2cn[nH]c2c2cc3cccc[n+]3cc12` [186(g), 7-bromo-9,10-pyrazolo-benzo[b]quinolizinium hexafluorophosphate], the pKi is 6.91.
Same read-out and setting: under `OCc1cccc2c1C1c3cccc[n+]3C2CC1(c1ccoc1)c1ccoc1.[O-][Cl+3]([O-])([O-])[O-]` (centres unmarked) [182(e), 6,11-ethano-12,12-di(3-furyl)-10-hydroxymethyl-6,11-dihydrobenzo[b]quinolizinium perchlorate] stands 6.80; under `[O-][Cl+3]([O-])([O-])[O-].c1ccc(C2(c3ccccc3)CC3c4ccccc4C2c2cccc[n+]23)cc1` (centres unmarked) [111(a), 6,11-Ethano-12,12-diphenyl-6,11-dihydrobenzo[b]quinolizinium perchlorate], 8.22.
Still for that read-out and setting: under `CCOC12c3ccoc3CCC1C1c3ccccc3C2c2cccc[n+]21` (centres unmarked) [9(b), 6,11[[5',4!]-4'-ethoxy-4',5',6',7'-tetrahydrobenzofuryl]-6,11-dihydrobenzo[b]quinolizinium hexafluorophosphate] stands 8.23; under `c1ccc2c(c1)CC1C3c4ccccc4C(c4cccc[n+]43)C21c1ccoc1` (centres unmarked) [6(c), 6,11[[2',3']-3'-(3-furyl)-indanyl]6,11-dihydrobenzo[b]quinolizinium hexafluorophosphate], 8.92; under `COc1cccc2c1C1c3cccc[n+]3C2CC1(c1ccccc1)c1ccccc1` (centres unmarked) [Example 26, 6,11-ethano-12,12-diphenyl-10-methoxy-6,11-dihydrobenzo[b]quinolizinium chloride], 7.49.
The same measure, in the same setting: the figure for `COc1cccc(C23c4ccccc4CC2C2c4ccccc4C3c3cccc[n+]32)c1` (centres unmarked) [5(c), 6.11[[2',3']-3'-(3-methoxyphenyl)-indanyl]6,11-dihydrobenzo[b]quinolizinium hexafluorophosphate] is 7.88; for `O=[N+]([O-])c1cccc2c1C1c3cccc[n+]3C2CC1(c1ccoc1)c1ccoc1.[O-][Cl+3]([O-])([O-])[O-]` (single isomer, unassigned) [Example 201(d), 6,11-ethano-12,12-di(3-furyl)-10-nitro-6,11-dihydrobenzo[b]quinolizinium perchlorate] it is 7.31.
As for `c1ccc2c(c1)C1CC(c3ccoc3)(c3ccoc3)C2c2c3ccccc3cc[n+]21` (centres unmarked) [180(g), 14,14-di(3-furyl)-8,13-ethano-8,13-dihydrodibenzo[a,g]quinolizinium chloride], the pKi was 7.70.
On the same count and under the same terms, the figure for `c1ccc2c(c1)CC1C2C2c3ccccc3C1[n+]1ccccc12` (single isomer, unassigned) [Example 2(a), 6,11[[2',3']-indanyl]6,11-dihydrobenzo[b]quinolizinium chloride] is 6.91.
Still for that read-out and setting: the figure for `CCCCCCCC(=O)Oc1cccc2c1C1c3cccc[n+]3C2CC1(c1ccoc1)c1ccoc1` (centres unmarked) [Example 165, 6,11-ethano-12,12-di(3-furyl)-10-octanoyloxy-6,11-dihydrobenzo[b]quinolizinium chloride] is 7.50; for `c1cc[n+]2c(c1)C1c3c(ccc4c3OCO4)C2CC1(c1ccoc1)c1ccoc1` (centres unmarked) [183(c), 6,11-ethano-12,12-di(3-furyl)-9,10-methylenedioxy-6,11-dihydrobenzo[b]quinolizinium chloride] it is 8.57; for `Oc1cccc2c1C1c3cccc[n+]3C2CC1(c1ccoc1)c1ccn[nH]1` (centres unmarked) [Example 200, 6,11-ethano-12-(3-furyl)-12-(pyrazol-5-yl)-10-hydroxy-6,11-dihydro-benzo[b]quinolizinium chloride] it is 7.94.
Same read-out and setting: the figure for `Clc1ccc2c(c1)C1c3cccc[n+]3C2CC1(c1ccn[nH]1)c1ccn[nH]1` (centres unmarked) [189(b), 6,11-ethano-12,12-di-(pyrazol-5-yl)]-9-chloro-6,11-dihydrobenzo[b]quinolizinium perchlorate] is 7.65.
Take `C#CC1(c2ccccc2)CC2c3ccccc3C1c1cccc[n+]12` (single isomer, unassigned) [Example 56, 6,11-ethano-12-phenyl-12-ethynyl-6,11-dihydrobenzo[b]quinolizinium hexafluorophosphate]: the pKi is 7.25.
The same measure, in the same setting: the figure for `Clc1cccc(C2(c3cccc(Cl)c3)CC3c4ccccc4C2c2cccc[n+]23)c1` (centres unmarked) [55(b), 6,11-ethano-12,12-di(m-chlorophenyl)-6,11-dihydrobenzo[b]quinolizinium chloride] is 6.98.
The compound `c1ccc2c(c1)C1C3CCc4occc4C3(c3ccoc3)C2c2cccc[n+]21` (single isomer, unassigned) [69(c), 6,11[[5',4']-4'-(3-furyl)-4,5,6,7-tetrahydrobenzofuryl]-6,11-dihydrobenzo[b]quinolizinium perchlorate] showed a pKi of 9.05.
Compound `c1ccc2c(c1)C1C3CCc4occc4C3(c3cc4ccccc4o3)C2c2cccc[n+]21` (centres unmarked) [10(c-k), 6,11[[5',4']-4'-(2-benzofuryl)-4',5',6',7'-tetrahydro-benzofuryl]6,11-dihydrobenzo[b]quinolizinium hexafluorophosphate] had a pKi of 6.16.
The same measure, in the same setting: the figure for `COC(=O)C12CC(c3ccoc3)(c3ccoc3)C(c3ccccc31)c1cccc[n+]12` (centres unmarked) [176(d), 6,11-ethano-12,12-di(3-furyl)-6-methoxycarbonyl-6,11-dihydrobenzo[b]quinolizinium chloride] is 7.40; for `CCCCC12CC(c3ccccc3)(c3ccccc3)C(c3ccccc31)c1cccc[n+]12.[O-][Cl+3]([O-])([O-])[O-]` (centres unmarked) [59(c), 6,11-ethano-12,12-diphenyl-6-butyl-6,11-dihydrobenzo[b]quinolizinium perchlorate] it is 5.41; for `CCCCCCCCOc1cccc2c1C1c3cccc[n+]3C2CC1(c1ccoc1)c1ccoc1.[O-][Cl+3]([O-])([O-])[O-]` (centres unmarked) [Example 172, 6,11-ethano-12,12-di(3-furyl)-10-octyloxy-6,11-dihydrobenzo[b]quinolizinium perchlorate] it is 5.47.
Same read-out and setting: under `c1ccc2c(c1)C1CC(c3nccs3)(c3nccs3)C2c2cccc[n+]21` (centres unmarked) [61(c), 6,11-ethao-12,12-di(2-thiazolyl)-6,11-dihydrobenzo[b]quinolizinium perchlorate] stands 7.77.
Still for that read-out and setting: the figure for `CCOC(=O)CC(C)(C)C(=O)Oc1cccc2c1C1c3cccc[n+]3C2CC1(c1ccoc1)c1ccoc1` (centres unmarked) [178(d), 6,11-ethano-12,12-di(3-furyl)-10-(OC(O)C(CH3)2 CH2 CO2Et)-6,11-dihydrobenzo[b]quinolizinium chloride] is 5.84.

The assay is the same for the next values; noted with them: [3H]TCP approx. 1 nM, rat brain membranes; mean of at least two determinations; hydrate.
The compound `CC12CC(c3ccccc3)(c3ccccc3)C(c3ccccc31)c1cccc[n+]12` (centres unmarked) [Example 21, 6,11-ethano-12,12-diphenyl-6-methyl-6,11-dihydrobenzo[b]quinolizinium chloride hydrate] gave a pKi of 7.89.

The same assay, now with this note: inhibition of [3H]TCP binding at 10 μM.
On to `Brc1ccc(C2(c3ccc(Br)cc3)CC3c4ccccc4C2c2cccc[n+]23)cc1` (centres unmarked) [23(c), 6,11-ethano-12,12-di-p-bromophenyl-6,11-dihydrobenzo[b]quinolizinium chloride], for which the “[3H]TCP percent inhibition @ 10 μm” value came out at 22%.
Same read-out and setting: under `Cc1ccc(S(=O)(=O)n2nccc2C2(c3ccoc3)CC3c4ccccc4C2c2cccc[n+]23)cc1.[Br-]` (single isomer, unassigned) [Example 184(d), 6,11-ethano-12-(3-furyl)-12-[1-(p-toluenesulfonyl)pyrazol-5-yl]-6,11-dihydrobenzo[b]quinolizinium bromide] stands 53%.

A word on the pKi: it is −log10 of the Ki, conventionally taken in molar units.

(Values after US5554620A, “Substituted 6,11-ethano-6,11-dihydrobenzo[b] quinolizinium salts and compositions and methods of use thereof” (Sterling Winthrop Inc., priority 1994, dated 1996).)
